Measured values from patent US7678918B2, “Intermediates for imidazonaphthyridines” (3M Innovative Properties Company, priority 1997, dated 2010).

Legend:
[1] = system: TNF; test: Cytokine Induction in Human Cells: tumor necrosis factor (TNF) secreted by PBMCs, ELISA; format: cell-based; conditions: 18 to 24 hours; further: call rule not given here
How it was run: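 Human donor PBMCs at 1.5-2×10^6 cells/mL in RPMI with 10% FBS were exposed to compound, generally at 0.1 to 100 μM (≤1% DMSO final), for 18 to 24 h at 37 °C. Secreted TNF in supernatant was measured by ELISA and reported as pg/mL.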

[2] = system: IFN; test: Cytokine Induction in Human Cells: interferon (IFN) secreted by PBMCs, A549/encephalomyocarditis bioassay; format: cell-based; conditions: 18 to 24 hours; further: call rule not given here
How it was run: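 Human PBMCs from healthy donors at 1.5-2×10^6 cells/mL in RPMI with 10% FBS, exposed to compounds (typically 0.1 to 100 μM, ≤1% DMSO) for 18 to 24 h at 37° C. Secreted IFN measured by A549/encephalomyocarditis virus cytopathic-effect bioassay, in alpha reference units/mL against NIH human leukocyte IFN standard.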

[3] = system: interferon α; test: Interferon (α) Induction in Human Cells (PBM's, 48 hours, A549 bioassay); format: cell-based; design: key: +: indicates that the compound induced interferon α at that particular concentration; −: indicates that the compound did not induce interferon α at that particular concentration; ±: indicates that the results were equivocal at that particular concentration; conditions: 48 hours incubation
Method: An in vitro human blood cell system was used to assess interferon induction by compounds of the invention. Activity is based on the measurement of interferon secreted into culture media. Interferon is measured by bioassay.
Whole blood was collected by venipuncture into EDTA vacutainer tubes. Peripheral blood mononuclear cells (PBM's) were separated from whole blood by using either LeucoPREP™ Brand Cell Separation Tubes (available from Becton Dickinson) or Ficoll-Paque® solution (available from Pharmacia LKB Biotechnology Inc, Piscataway, N.J.). The PBM's were suspended at 1×10^6/mL in RPMI 1640 media (available from GIBCO, Grand Island, N.Y.) containing 25 mM HEPES (N-2-hydroxyethylpiperazine-N′-2-ethanesulfonic acid) and L-glutamine (1% penicillin-streptomycin solution added) with 10% heat inactivated (56° C. for 30 minutes) autologous serum added. 200 μL portions of PBM suspension were added to 96 well (flat bottom) MicroTest III sterile tissue culture plates.
The compounds were solubilized in ethanol, dimethyl sulfoxide or tissue culture water then diluted with tissue culture water, 0.01N sodium hydroxide or 0.01N hydrochloric acid (The choice of solvent will depend on the chemical characteristics of the compound being tested.). Ethanol or DMSO concentration should not exceed a final concentration of 1% for addition to the culture wells. Compounds were initially tested in a concentration range of from about 0.1 μg/mL to about 5 μg/mL. Compounds which show induction at a concentration of 0.5 μg/mL were then tested in a wider concentration range.
The solution of test compound was added in a volume (less than or equal to 50 μL) to the wells containing 200 μL of diluted whole blood or of PBM's in media. Solvent and/or media was added to control wells (wells with no test compound) and as needed to adjust the final volume of each well to 250 μL. The plates were covered with plastic lids, vortexed gently and then incubated for 48 hours at 37° C. with a 5% carbon dioxide atmosphere.
Following incubation, the plates were covered with parafilm and then centrifuged at 1000 rpm for 10 to 15 minutes at 4° C. in a Damon IEC Model CRU-5000 centrifuge. Media (about 200 μL) was removed from 4 to 8 wells and pooled into 2 mL sterile freezing vials. Samples were maintained at −70° C. until analysis.
Interferon was determined by bioassay using A549 human lung carcinoma cells challenged with encephalomyocarditis. The details of the bioassay method have been described by G. L. Brennan and L. H. Kronenberg in “Automated Bioassay of Interferons in Micro-test Plates”, Biotechniques, June/July 78, 1983, incorporated herein by reference. Briefly stated the method is as follows: interferon dilutions and A549 cells are incubated at 37° C. for 12 to 24 hours. The incubated cells are infected with an inoculum of encephalomyocarditis virus. The infected cells are incubated for an additional period at 37° C. before quantifying for viral cytopathic effect. The viral cytopathic effect is quantified by staining followed by spectrophotometric absorbance measurements. Results are expressed as alpha reference units/mL based on the value obtained for NIH HU IF-L standard. The interferon was identified as essentially all interferon alpha by testing in checkerboard neutralization assays against rabbit anti-human interferon (beta) and goat anti-human interferon (alpha) using A549 cell monolayers challenged with encephalomyocarditis virus.

melting point [°C] | SMILES | TNF induction ([1]; Dose Concentration 0.1 μM) | TNF induction ([1]; Dose Concentration 1.0 μM) | TNF induction ([1]; Dose Concentration 10.0 μM) | TNF induction ([1]; Dose Concentration 100.0 μM) | IFN induction ([2]; Dose Concentration 0.1 μM) | IFN induction ([2]; Dose Concentration 1.0 μM) | IFN induction ([2]; Dose Concentration 10.0 μM) | IFN induction ([2]; Dose Concentration 100.0 μM) | Interferon (α) Induction in Human Cells ([3]; Dose Concentration 0.01 μg/mL) | Interferon (α) Induction in Human Cells ([3]; Dose Concentration 0.05 μg/mL) | Interferon (α) Induction in Human Cells ([3]; Dose Concentration 0.10 μg/mL) | Interferon (α) Induction in Human Cells ([3]; Dose Concentration 0.50 μg/mL) | Interferon (α) Induction in Human Cells ([3]; Dose Concentration 1.0 μg/mL) | Interferon (α) Induction in Human Cells ([3]; Dose Concentration 5.0 μg/mL) | Interferon (α) Induction in Human Cells ([3]; Dose Concentration 10.0 μg/mL) | Interferon (α) Induction in Human Cells ([3]; Dose Concentration 25.0 μg/mL) | Interferon (α) Induction in Human Cells ([3]; Dose Concentration 50.0 μg/mL)
205 to 212 | CCOCC(=O)Nc1cnc2cccnc2c1NCc1ccccc1.Cl |  |  |  |  |  |  |  |  |  |  |  |  |  |  |  |  | 
 | CC(C)Cn1cnc2c(N)nc3ncccc3c21 [Example 9, 1-(2-Methylpropyl)-1H-imidazo[4,5-c][1,8]naphthyridin-4-amine hydrate] | − | − | − | − | ± | − | + | − | − | − | − | − | − | − | − | − | −
 | CCCCc1nc2c(N)nc3ncccc3c2n1CC(C)C [Example 12, 2-Butyl-1-(2-methylpropyl)-1H-imidazo[4,5-c][1,8]naphthyridin-4-amine] |  | + | + | + |  | + | + | + | − | − | + | + | + | + | + | + | +
 | CCCCc1nc2c(N)nc3c(c2n1CC(C)C)CCCN3 [Example 13, 2-Butyl-6,7,8,9-tetrahydro-1-(2-methylpropyl) 1H-imidazo[4,5-c][1,8]naphthyridin-4-amine] |  | + | + | + |  | + | + | + | − | + | + | + | + | + | + | + | +
 | CCCCc1nc2c(N)nc3cccnc3c2n1CC(C)C [Example 39, 2-Butyl-1-(2-methylpropyl)-1H-imidazo[4,5-c][1,5]naphthyridin-4-amine] |  | + | + | − |  | + | + | − | − | − | + | + | + | + | + | + | +
 | CCCCc1nc2c(N)nc3c(c2n1CC(C)C)NCCC3 [Example 40, 6,7,8,9-Tetrahydro-2-butyl-1-(2-methylpropyl)-1H-imidazo[4,5-c][1,5]naphthyridin-4-amine] |  | + | + | + |  | + | + | ± | − | + | + | + | + | + | + | + | +
 | CCCCc1nc2c(N)nc3cccnc3c2n1CCNC(=O)c1ccc(Br)s1 [Example 204] | − | + | + | + | + | + | + | + |  |  |  |  |  |  |  |  | 
 | CCCCc1nc2c(N)nc3cccnc3c2n1CCNC(=O)c1cnc(C)cn1 [Example 205] | − | + | + | + | + | + | + | + |  |  |  |  |  |  |  |  | 
 | CCCCc1nc2c(N)nc3cccnc3c2n1CCNC(=O)c1ccc(Br)o1 [Example 206] | − | + | + | + | + | + | + | + |  |  |  |  |  |  |  |  | 
 | CCCCc1nc2c(N)nc3cccnc3c2n1CCNC(=O)Cc1cccnc1 [Example 207] | − | − | + | + | − | − | + | + |  |  |  |  |  |  |  |  | 
 | CCCCc1nc2c(N)nc3cccnc3c2n1CCNC(=O)CCc1cccnc1 [Example 208] | − | − and ± | − and + | − and + | − | − | + | + |  |  |  |  |  |  |  |  | 
 | CCCCc1nc2c(N)nc3cccnc3c2n1CCNC(=O)CCn1cc([N+](=O)[O-])nc1C [Example 209] | − | − | + | + | − | − | + | + |  |  |  |  |  |  |  |  | 
 | CCCCc1nc2c(N)nc3cccnc3c2n1CCNC(=O)C1CC(=O)N(Cc2ccc(Cl)cc2)C1 (stereo not drawn) [Example 210] | + | + | + | + | − | − | + | + |  |  |  |  |  |  |  |  | 
 | CCCCc1nc2c(N)nc3cccnc3c2n1CCNC(=O)CCN1C(=O)c2ccccc2C1=O [Example 211] | − | − | + | + | − | − | + | + |  |  |  |  |  |  |  |  | 
 | CCCCc1nc2c(N)nc3cccnc3c2n1CCNC(=O)CCC(=O)c1cccs1 [Example 212] | − | + | + | + | − | + | + | + |  |  |  |  |  |  |  |  | 
